Experimental data as given in ChEMBL document CHEMBL5500353, “Discovery of novel amide derivatives as potent quorum sensing inhibitors of Pseudomonas aeruginosa” (Eur J Med Chem, 2024).
Activity calls are given as the source filed them. The rule behind the calls is not given here.

Assays:
[1] = Inhibition of quorum sensing system in Pseudomonas aeruginosa PAO1-lasB-gfp assessed as inhibition of lasB expression at 50 ug/ml incubated for 8 hrs under shaking condition by microplate reader based analysis relative to control; conditions: dose 50.0 µg/ml
[2] = Inhibition of quorum sensing system in Pseudomonas aeruginosa PAO1-rhlA-gfp assessed as inhibition of rhlA expression at 50 ug/ml incubated for 8 hrs under shaking condition by microplate reader based analysis relative to control; conditions: dose 50.0 µg/ml
[3] = Inhibition of quorum sensing system in Pseudomonas aeruginosa PAO1-pqsA-gfp assessed as inhibition of pqsA expression at 50 ug/ml incubated for 8 hrs under shaking condition by microplate reader based analysis relative to control; conditions: dose 50.0 µg/ml
[4] = test system: Pseudomonas aeruginosa; assay: Downregulation of chiC mRNA expression in Pseudomonas aeruginosa PAO1 at 160 ug/ml incubated for 6 hrs by RT-qPCR analysis; type: functional; conditions: dose 160.0 µg/ml
[5] = Cytotoxicity against human HepG2 cells assessed as inhibition of cell growth at 100 ug/ml measured after 48 hrs by CCK-8 method relative to control; type: toxicity, cell-based; conditions: at 100 µg/mL
[6] = test system: Pseudomonas aeruginosa; assay: Antibacterial activity against Pseudomonas aeruginosa PAO1 at 80 ug/ml incubated for 48 hrs by absorbance based analysis; type: functional, organism-based; conditions: dose 80.0 µg/ml
[7] = test system: Pseudomonas aeruginosa; assay: Downregulation of rhlR mRNA expression in Pseudomonas aeruginosa PAO1 at 160 ug/ml incubated for 6 hrs by RT-qPCR analysis; type: functional; conditions: dose 160.0 µg/ml
[8] = target: T1, Transcriptional activator protein LasR (Pseudomonas aeruginosa (strain ATCC 15692 / PAO1 / 1C / PRS 101 / LMG12228), UniProt P25084); assay: Binding affinity to Pseudomonas aeruginosa PAO1 LasR assessed as dissociation constant by SPR analysis
T1 sequence (P25084 whole entry): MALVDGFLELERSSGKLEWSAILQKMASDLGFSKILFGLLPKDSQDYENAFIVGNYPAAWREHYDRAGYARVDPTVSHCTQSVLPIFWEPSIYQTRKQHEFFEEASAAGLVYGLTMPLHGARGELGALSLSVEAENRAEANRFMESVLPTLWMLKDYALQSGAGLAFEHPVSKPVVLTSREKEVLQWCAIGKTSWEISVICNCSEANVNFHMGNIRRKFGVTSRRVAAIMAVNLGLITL

[9] = test system: Pseudomonas aeruginosa; assay: Antibacterial activity against Pseudomonas aeruginosa PAO1 at 80 to 160 ug/ml incubated for 48 hrs by absorbance based analysis; type: functional, organism-based; conditions: dose 80-160 µg/ml
[10] = test system: Pseudomonas aeruginosa; assay: Anti-virulence activity in Pseudomonas aeruginosa PAO1 assessed as reduction in elastase production at 160 ug/ml by congo red dye based microplate reader analysis; type: functional, organism-based; conditions: dose 160.0 µg/ml
[11] = test system: Pseudomonas aeruginosa; assay: Anti-virulence activity in Pseudomonas aeruginosa PAO1 assessed as reduction in rhamnolipid production at 160 ug/ml incubated for 48 hrs by absorbance based analysis; type: functional, organism-based; conditions: dose 160.0 µg/ml
[12] = test system: Pseudomonas aeruginosa; assay: Downregulation of pqsR mRNA expression in Pseudomonas aeruginosa PAO1 at 160 ug/ml incubated for 6 hrs by RT-qPCR analysis; type: functional; conditions: dose 160.0 µg/ml
[13] = test system: Pseudomonas aeruginosa; assay: Downregulation of lasA mRNA expression in Pseudomonas aeruginosa PAO1 at 160 ug/ml incubated for 6 hrs by RT-qPCR analysis; type: functional; conditions: dose 160.0 µg/ml
[14] = test system: Pseudomonas aeruginosa; assay: Downregulation of rhll-mRNA expression in Pseudomonas aeruginosa PAO1 at 160 ug/ml incubated for 6 hrs by RT-qPCR analysis; type: functional; conditions: dose 160.0 µg/ml
[15] = test system: Pseudomonas aeruginosa; assay: Antibacterial activity against Pseudomonas aeruginosa infected in Galleria mellonella larvae infection model assessed as increase in survival rate at 160 ug/ml preincubated with measured after 72 hrs; type: functional, organism-based; conditions: dose 160.0 µg/ml
[16] = Cytotoxicity against human HepG2 cells assessed as inhibition of cell growth at 10 ug/ml measured after 48 hrs by CCK-8 method relative to control; type: toxicity, cell-based; conditions: at 10 µg/mL
[17] = test system: Pseudomonas aeruginosa; assay: Anti-virulence activity in Pseudomonas aeruginosa PAO1 assessed as reduction in pyocyanin production at 160 ug/ml by absorbance based analysis; type: functional, organism-based; conditions: dose 160.0 µg/ml
[18] = test system: Pseudomonas aeruginosa; assay: Downregulation of pqsA mRNA expression in Pseudomonas aeruginosa PAO1 at 160 ug/ml incubated for 6 hrs by RT-qPCR analysis; type: functional; conditions: dose 160.0 µg/ml
[19] = target: T2, Transcriptional regulator MvfR (Pseudomonas aeruginosa PA14, UniProt A0A072ZLE6); assay: Binding affinity to Pseudomonas aeruginosa PAO1 PqsR expressed in Escherichia coli BL21 assessed as dissociation constant by SPR analysis
T2 sequence (A0A072ZLE6 whole entry): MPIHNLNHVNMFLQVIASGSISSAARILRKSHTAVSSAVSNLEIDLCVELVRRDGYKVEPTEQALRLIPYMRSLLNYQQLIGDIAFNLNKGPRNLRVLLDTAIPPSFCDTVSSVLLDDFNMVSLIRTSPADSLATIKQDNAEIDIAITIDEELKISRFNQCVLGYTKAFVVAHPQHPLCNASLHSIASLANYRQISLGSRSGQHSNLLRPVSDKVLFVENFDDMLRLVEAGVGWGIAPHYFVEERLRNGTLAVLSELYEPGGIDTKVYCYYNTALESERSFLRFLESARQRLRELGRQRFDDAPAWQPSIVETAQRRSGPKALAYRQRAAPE

[20] = test system: Pseudomonas aeruginosa; assay: Downregulation of lasl-mRNA expression in Pseudomonas aeruginosa PAO1 at 160 ug/ml incubated for 6 hrs by RT-qPCR analysis; type: functional; conditions: dose 160.0 µg/ml
[21] = test system: Pseudomonas aeruginosa; assay: Downregulation of phzM mRNA expression in Pseudomonas aeruginosa PAO1 at 160 ug/ml incubated for 6 hrs by RT-qPCR analysis; type: functional; conditions: dose 160.0 µg/ml
[22] = test system: Pseudomonas aeruginosa; assay: Anti-virulence activity in Pseudomonas aeruginosa PAO1 assessed as reduction in pyoverdine production at 160 ug/ml by absorbance based analysis; type: functional, organism-based; conditions: dose 160.0 µg/ml
[23] = test system: Pseudomonas aeruginosa; assay: Antibiofilm activity against Pseudomonas aeruginosa PAO1 assessed as reduction in biofilm production at 160 ug/ml incubated for 72 hrs by crystal violet staining based analysis; type: functional, organism-based; conditions: dose 160.0 µg/ml
[24] = test system: Pseudomonas aeruginosa; assay: Anti-motility activity against Pseudomonas aeruginosa PAO1 assessed as reduction in swarming at 160 ug/ml incubated for 12 hrs; type: functional, organism-based; conditions: dose 160.0 µg/ml
[25] = test system: Pseudomonas aeruginosa; assay: Downregulation of lasB mRNA expression in Pseudomonas aeruginosa PAO1 at 160 ug/ml incubated for 6 hrs by RT-qPCR analysis; type: functional; conditions: dose 160.0 µg/ml
[26] = test system: Pseudomonas aeruginosa; assay: Downregulation of lasR mRNA expression in Pseudomonas aeruginosa PAO1 at 160 ug/ml incubated for 6 hrs by RT-qPCR analysis; type: functional; conditions: dose 160.0 µg/ml

Compound: CCCCCC(=O)NCC(C)C
- inhibition [1]: 70%
- inhibition [2]: 72.4%
- inhibition [3]: 13.6%

Compound: CCC/C=C/C(=O)NCC(C)C
- inhibition [1]: 64.1%
- inhibition [2]: 80.5%
- inhibition [3]: 26.5%
- Activity [4]: Active

Compound: C=CCSSCC=C [DIALLYLDISULFIDE]
- inhibition at 48 h, 100 ug/ml [5]: 18.1%
- inhibition [1]: 36.1%
- inhibition [2]: 38%
- inhibition [3]: 34.6%
- Activity [6]: inactive

Compound: C/C=C/C=C/C(=O)NCC(C)(C)O
- inhibition [1]: 26.3%
- inhibition [2]: 32.4%

Compound: C=C(C)CNC(=O)CCC
- inhibition [1]: 61.5%
- inhibition [2]: 64.5%
- inhibition [3]: 38.1%

Compound: CCCCCCC(=O)NCC(C)C
- inhibition [1]: 2.28%
- inhibition [2]: 8.21%
- inhibition [3]: 5.99%

Compound: C=CC(=O)NCC(C)C
- inhibition [1]: 55.1%
- inhibition [2]: 68.6%
- inhibition [3]: 12.6%

Compound: CC/C=C/C(=O)NCC(C)C
- inhibition [1]: 71.5%
- inhibition [2]: 72.7%
- inhibition [3]: 26.2%

Compound: CCCC(=O)NCC(C)(C)O
- inhibition [1]: 37.4%
- inhibition [2]: 43.1%
- inhibition [3]: -6.15%

Compound: C=C(C)CNC(=O)CCCCCC
- inhibition [1]: 61.6%
- inhibition [2]: 68.4%
- inhibition [3]: 42.5%

Compound: C/C=C/C(=O)NCC(C)C
- inhibition [1]: 63.7%
- inhibition [2]: 72.3%
- inhibition [3]: 27.8%

Compound: CCCCCC(=O)NCC(C)(C)O
- inhibition [1]: 32.4%
- inhibition [2]: 54.9%

Compound: C/C=C/C(=O)NCC(C)(C)O
- inhibition [1]: 29.9%
- inhibition [2]: 41.9%

Compound: CC/C=C/C(=O)NCC(C)(C)O
- inhibition [1]: 53.1%
- inhibition [2]: 58.1%
- inhibition [3]: -8.67%

Compound: C/C=C/C=C/C(=O)NCC(C)C
- inhibition at 48 h, 100 ug/ml [5]: 30.1%
- Activity [7]: Active
- inhibition [1]: 82.2%
- Kd [8]: 1230 µM
- Activity [9]: inactive
- Activity [10]: Active
- Activity [11]: Active
- inhibition [2]: 84.1%
- inhibition [3]: 65.5%
- Activity [12]: inactive
- Activity [13]: Active
- Activity [14]: Active
- Activity [15]: Active
- inhibition at 48 h, 10 ug/ml [16]: -2.16%
- Activity [17]: Active
- Activity [18]: Active
- Kd [19]: 8.36 µM
- Activity [20]: Active
- Activity [21]: Active
- Activity [22]: Active
- Activity [23]: Active
- Activity [24]: Active
- Activity [25]: Active
- Activity [26]: inactive

Compound: C=CC(=O)NCC(C)(C)O
- inhibition [1]: 6.82%
- inhibition [2]: 29.7%
- inhibition [3]: 0.28%

Compound: C=C(C)CNC(=O)CCCC
- inhibition [1]: 72.2%
- inhibition [2]: 76.9%
- inhibition [3]: 26%

Compound: CCCCC(=O)NCC(C)(C)O
- inhibition [1]: 40%
- inhibition [2]: 55.8%
- inhibition [3]: 1.47%

Compound: CCC(=O)NCC(C)(C)O
- inhibition [1]: 7.26%
- inhibition [2]: 28.3%

Compound: C=C(C)CNC(=O)/C=C/C
- inhibition [1]: 67.5%
- inhibition [2]: 80%
- inhibition [3]: 38%

Compound: C=CC(=O)NCC(=C)C
- inhibition [1]: 54.7%
- inhibition [2]: 63.9%
- inhibition [3]: 2.45%

Compound: CCC/C=C/C(=O)NCC(C)(C)O
- inhibition [1]: 34.5%
- inhibition [2]: 50.1%

Compound: CCCCCCC(=O)NCC(C)(C)O
- inhibition [1]: 13.1%
- inhibition [2]: 18.1%

Compound: CCCC(=O)NCC(C)C
- inhibition [1]: 65.7%
- inhibition [2]: 65.4%
- inhibition [3]: 29.8%

Compound: CC(=O)NCC(C)C
- inhibition [1]: 13.8%
- inhibition [2]: 18.9%
- inhibition [3]: 11%

Compound: CCC(=O)NCC(C)C
- inhibition [1]: 54.6%
- inhibition [2]: 71%
- inhibition [3]: 27.8%

Compound: C=C(C)CNC(=O)CCCCC
- inhibition [1]: 72.7%
- inhibition [2]: 79.7%
- inhibition [3]: 36.1%

Compound: CCCCC(=O)NCC(C)C
- inhibition [1]: 77.2%
- inhibition [2]: 65.8%
- inhibition [3]: 30.2%

Compound: C=C(C)CNC(=O)/C=C/CCC
- inhibition at 48 h, 100 ug/ml [5]: 18.9%
- Activity [7]: Active
- inhibition [1]: 77.1%
- Activity [9]: inactive
- Activity [10]: Active
- Activity [11]: Active
- inhibition [2]: 85%
- inhibition [3]: 40%
- Activity [12]: inactive
- Activity [13]: Active
- Activity [14]: Active
- Activity [15]: Active
- inhibition at 48 h, 10 ug/ml [16]: 9.91%
- Activity [17]: Active
- Activity [18]: Active
- Activity [20]: Active
- Activity [21]: Active
- Activity [4]: Active
- Activity [22]: Active
- Activity [23]: Active
- Activity [24]: Active
- Activity [25]: Active
- Activity [26]: inactive

Compound: CC(=O)NCC(C)(C)O
- inhibition [1]: 1.11%
- inhibition [2]: 13.8%

Compound: C=C(C)CNC(C)=O
- inhibition [1]: 10.5%
- inhibition [2]: 10.2%
- inhibition [3]: 59.1%

Compound: C=C(C)CNC(=O)/C=C/C=C/C
- inhibition [1]: 38.9%
- inhibition [2]: 56.8%
- inhibition [3]: 11.8%
